Measured values taken from publication PMC10327353 (Breast Cancer Research : BCR, 2023).
“And” between values parts separate entries of the source, which are not always exact repeats. Identical values can stand only once.

Experiment: Phase 1 study: safety and tolerability
Assay type: in vivo
Procedure: The maximum tolerated dose (MTD) of DZD1516 was defined based on safety data and the Bayesian optimal interval (BOIN) design (Additional file 1). The definition of DLT is provided in Additional file 1.
The AE grading was assessed according to the NCI-Common Terminology Criteria for Adverse Events (CTCAE) (version 5.0) and was monitored until 28 days after the last dose.
Eligible patients received single oral dosing of DZD1516 on Cycle 0 Day 1 (C0D1), followed by a 7-day washout. Twice daily oral dosing (bid) of DZD1516 was commenced from C1D1 in a continuous 21-day cycle until disease progression, unacceptable toxicity, or withdrawal of consent. All doses were taken under fed conditions (within 30 minutes after a meal).
Planned dosing consisted of 25, 50, 100, 200, 300, and 400 mg. Each dose escalation cohort will comprise a minimum of three and a maximum of six evaluable patients (except only one patient in the starting dose cohort). The maximum tolerated dose of DZD1516 was defined according to safety data and the Bayesian optimal interval (BOIN) design. Dose escalation/de-escalation rule with target toxicity rate for the MTD is 0.30 with interval of (0.20, 0.33).
DLTs were any adverse event (AE) not clearly attributable to the patient’s disease, including ≥ grade 4 hematological toxicities present for ≥ 4 days, grade 3 thrombocytopenia with bleeding, or grade 4 thrombocytopenia lasting for > 5 days, ≥ grade 3 non-hematological toxicities that is dose-limiting in the judgment of the investigators. Any other toxicity that is greater than that at baseline, is clinically significant or unacceptable, and is judged to be a DLT by the SRC. Exceptions included alopecia of any grade and isolated grade 3 laboratory change without clinical sequelae or clinical significance.
Safety evaluations were conducted at screening, on Day 1, 8, and 15 of Cycle 1, on Day 1 of each subsequent treatment cycle, at the end-of-treatment visit, and clinically indicated. Safety assessments included clinical laboratory measurements (hematology, chemistry, coagulation, and urinalysis), electrocardiogram (ECG), Echocardiogram/MUGA scan, ECOG performance status, vital signs, and physical examinations.

COc1cc(O[C@H]2CCN(C)CC2(F)F)c2c(Nc3ccc(Oc4ccn5ncnc5c4)c(C)c3)ncnc2c1 [DZD1516]
Decreased appetite, ≥ Grade 3 (300 mg (N = 4)): 0 (0.0) n (%) | Dizziness, Any Grade (300 mg (N = 4)): 1 (25.0) n (%) | Dizziness, ≥ Grade 3 (300 mg (N = 4)): 1 (25.0) n (%) | Drug-related TEAE: Grade 3 (300 mg (N = 4)): 2 (50.0) n (%) | Drug-related TEAE: Leading to death (300 mg (N = 4)): 0 (0.0) n (%) | Drug-related TEAE: Leading to dose reduction (300 mg (N = 4)): 3 (75.0) n (%) | Drug-related TEAE: Leading to treatment discontinuation (300 mg (N = 4)): 0 (0.0) n (%) | Drug-related TEAE: Leading to treatment interruption (300 mg (N = 4)): 2 (50.0) n (%) | Drug-related TEAE: SAE (300 mg (N = 4)): 0 (0.0) n (%) | Fatigue, Any Grade (300 mg (N = 4)): 1 (25.0) n (%) | Fatigue, ≥ Grade 3 (300 mg (N = 4)): 1 (25.0) n (%) | Gastrointestinal disorders, Any Grade (300 mg (N = 4)): 4 (100.0) n (%) | Gastrointestinal disorders, ≥ Grade 3 (300 mg (N = 4)): 1 (25.0) n (%) | General disorders and administration site conditions, Any Grade (300 mg (N = 4)): 3 (75.0) n (%) | General disorders and administration site conditions, ≥ Grade 3 (300 mg (N = 4)): 2 (50.0) n (%) | Headache, Any Grade (300 mg (N = 4)): 4 (100.0) n (%) | Headache, ≥ Grade 3 (300 mg (N = 4)): 0 (0.0) n (%) | Hemoglobin decreased, Any Grade (300 mg (N = 4)): 0 (0.0) n (%) | Hemoglobin decreased, ≥ Grade 3 (300 mg (N = 4)): 0 (0.0) n (%) | Investigations, Any Grade (300 mg (N = 4)): 1 (25.0) n (%) | Investigations, ≥ Grade 3 (300 mg (N = 4)): 0 (0.0) n (%) | Lipase increased, Any Grade (300 mg (N = 4)): 0 (0.0) n (%) | Lipase increased, ≥ Grade 3 (300 mg (N = 4)): 0 (0.0) n (%) | Malaise, Any Grade (300 mg (N = 4)): 1 (25.0) n (%) | Malaise, ≥ Grade 3 (300 mg (N = 4)): 1 (25.0) n (%) | Metabolism and nutrition disorders, Any Grade (300 mg (N = 4)): 3 (75.0) n (%) | Metabolism and nutrition disorders, ≥ Grade 3 (300 mg (N = 4)): 0 (0.0) n (%) | Musculoskeletal and connective tissue disorders, Any Grade (300 mg (N = 4)): 3 (75.0) n (%) | Musculoskeletal and connective tissue disorders, ≥ Grade 3 (300 mg (N = 4)): 1 (25.0) n (%) | Nausea, Any Grade (300 mg (N = 4)): 4 (100.0) n (%) | Nausea, ≥ Grade 3 (300 mg (N = 4)): 1 (25.0) n (%) | Nervous system disorders, Any Grade (300 mg (N = 4)): 4 (100.0) n (%) | Nervous system disorders, ≥ Grade 3 (300 mg (N = 4)): 2 (50.0) n (%) | Participants with any TEAE, Any Grade (300 mg (N = 4)): 4 (100.0) n (%) | Participants with any TEAE, ≥ Grade 3 (300 mg (N = 4)): 3 (75.0) n (%) | Platelet count decreased, Any Grade (300 mg (N = 4)): 0 (0.0) n (%) | Platelet count decreased, ≥ Grade 3 (300 mg (N = 4)): 0 (0.0) n (%) | Proteinuria, Any Grade (300 mg (N = 4)): 1 (25.0) n (%) | Proteinuria, ≥ Grade 3 (300 mg (N = 4)): 0 (0.0) n (%) | Renal and urinary disorders, Any Grade (300 mg (N = 4)): 1 (25.0) n (%) | Renal and urinary disorders, ≥ Grade 3 (300 mg (N = 4)): 0 (0.0) n (%) | Subjects with any TEAE (300 mg (N = 4)): 4 (100.0) n (%) | Subjects with any drug-related TEAE (300 mg (N = 4)): 4 (100.0) n (%) | Vomiting, Any Grade (300 mg (N = 4)): 3 (75.0) n (%) | Vomiting, ≥ Grade 3 (300 mg (N = 4)): 1 (25.0) n (%) | White blood cell count decreased, Any Grade (300 mg (N = 4)): 0 (0.0) n (%) | White blood cell count decreased, ≥ Grade 3 (300 mg (N = 4)): 0 (0.0) n (%) | diarrhea (300 mg cohort): A single case of grade 2 diarrhea | dose-limiting toxicities (DLTs) (300 mg cohort): two out of four patients experienced DLTs | dose-limiting toxicity (DLT) (25–200 mg cohorts): no dose-limiting toxicity (DLT) observed | diarrhea or skin rash (MTD (250 mg) or lower doses): No diarrhea or skin rash of any grade was observed | Alanine aminotransferase increased, Any Grade (Total (N = 23)): 3 (13.0) n (%) | Alanine aminotransferase increased, ≥ Grade 3 (Total (N = 23)): 0 (0.0) n (%) | Anemia, Any Grade (Total (N = 23)): 3 (13.0) n (%) | Anemia, ≥ Grade 3 (Total (N = 23)): 0 (0.0) n (%) | Any TEAE: Grade 3 (Total (N = 23)): 6 n (%) and 6 (26.1) n (%) | Any TEAE: Leading to death (Total (N = 23)): 0 (0.0) n (%) | Any TEAE: Leading to dose reduction (Total (N = 23)): 3 n (%) and 3 (13.0) n (%) | Any TEAE: Leading to treatment discontinuation (Total (N = 23)): 1 (4.3) n (%) | Any TEAE: Leading to treatment interruption (Total (N = 23)): 5 n (%) and 5 (21.7) n (%) | Any TEAE: SAE (Total (N = 23)): 2 (8.7) n (%) | Aspartate aminotransferase increased, Any Grade (Total (N = 23)): 5 (21.7) n (%) | Aspartate aminotransferase increased, ≥ Grade 3 (Total (N = 23)): 0 (0.0) n (%) | Blood and lymphatic system disorders, Any Grade (Total (N = 23)): 3 (13.0) n (%) | Blood and lymphatic system disorders, ≥ Grade 3 (Total (N = 23)): 0 (0.0) n (%) | Blood bilirubin increased, Any Grade (Total (N = 23)): 4 (17.4) n (%) | Blood bilirubin increased, ≥ Grade 3 (Total (N = 23)): 0 (0.0) n (%) | Cardiac disorders, Any Grade (Total (N = 23)): 3 (13.0) n (%) | Cardiac disorders, ≥ Grade 3 (Total (N = 23)): 0 (0.0) n (%) | Constipation, Any Grade (Total (N = 23)): 3 (13.0) n (%) | Constipation, ≥ Grade 3 (Total (N = 23)): 0 (0.0) n (%) | Decreased appetite, Any Grade (Total (N = 23)): 4 (17.4) n (%) | Decreased appetite, ≥ Grade 3 (Total (N = 23)): 0 (0.0) n (%) | Dizziness, Any Grade (Total (N = 23)): 3 (13.0) n (%) | Dizziness, ≥ Grade 3 (Total (N = 23)): 1 (4.3) n (%) | Drug-related TEAE: Grade 3 (Total (N = 23)): 4 n (%) and 4 (17.4) n (%) | Drug-related TEAE: Leading to death (Total (N = 23)): 0 (0.0) n (%) | Drug-related TEAE: Leading to dose reduction (Total (N = 23)): 3 (13.0) n (%) | Drug-related TEAE: Leading to treatment discontinuation (Total (N = 23)): 0 (0.0) n (%) | Drug-related TEAE: Leading to treatment interruption (Total (N = 23)): 3 (13.0) n (%) | Drug-related TEAE: SAE (Total (N = 23)): 1 (4.3) n (%) | Fatigue, Any Grade (Total (N = 23)): 4 (17.4) n (%) | Fatigue, ≥ Grade 3 (Total (N = 23)): 1 (4.3) n (%) | Gastrointestinal disorders, Any Grade (Total (N = 23)): 10 (43.5) n (%) | Gastrointestinal disorders, ≥ Grade 3 (Total (N = 23)): 3 (13.0) n (%) | General disorders and administration site conditions, Any Grade (Total (N = 23)): 8 (34.8) n (%) | General disorders and administration site conditions, ≥ Grade 3 (Total (N = 23)): 2 (8.7) n (%) | Headache, Any Grade (Total (N = 23)): 10 (43.5) n (%) | Headache, ≥ Grade 3 (Total (N = 23)): 0 (0.0) n (%) | Hemoglobin decreased, Any Grade (Total (N = 23)): 7 (30.4) n (%) | Hemoglobin decreased, ≥ Grade 3 (Total (N = 23)): 0 (0.0) n (%) | Investigations, Any Grade (Total (N = 23)): 14 (60.9) n (%) | Investigations, ≥ Grade 3 (Total (N = 23)): 2 (8.7) n (%) | Lipase increased, Any Grade (Total (N = 23)): 3 (13.0) n (%) | Lipase increased, ≥ Grade 3 (Total (N = 23)): 0 (0.0) n (%) | Malaise, Any Grade (Total (N = 23)): 3 (13.0) n (%) | Malaise, ≥ Grade 3 (Total (N = 23)): 1 (4.3) n (%) | Metabolism and nutrition disorders, Any Grade (Total (N = 23)): 11 (47.8) n (%) | Metabolism and nutrition disorders, ≥ Grade 3 (Total (N = 23)): 0 (0.0) n (%) | Musculoskeletal and connective tissue disorders, Any Grade (Total (N = 23)): 7 (30.4) n (%) | Musculoskeletal and connective tissue disorders, ≥ Grade 3 (Total (N = 23)): 2 (8.7) n (%) | Nausea, Any Grade (Total (N = 23)): 6 (26.1) n (%) | Nausea, ≥ Grade 3 (Total (N = 23)): 1 (4.3) n (%) | Nervous system disorders, Any Grade (Total (N = 23)): 14 (60.9) n (%) | Nervous system disorders, ≥ Grade 3 (Total (N = 23)): 2 (8.7) n (%) | Participants with any TEAE, Any Grade (Total (N = 23)): 22 (95.7) n (%) | Participants with any TEAE, ≥ Grade 3 (Total (N = 23)): 6 (26.1) n (%) | Platelet count decreased, Any Grade (Total (N = 23)): 3 (13.0) n (%) | Platelet count decreased, ≥ Grade 3 (Total (N = 23)): 0 (0.0) n (%) | Proteinuria, Any Grade (Total (N = 23)): 4 (17.4) n (%) | Proteinuria, ≥ Grade 3 (Total (N = 23)): 0 (0.0) n (%) | Renal and urinary disorders, Any Grade (Total (N = 23)): 5 (21.7) n (%) | Renal and urinary disorders, ≥ Grade 3 (Total (N = 23)): 0 (0.0) n (%) | Subjects with any TEAE (Total (N = 23)): 22 (95.7) n (%) | Subjects with any drug-related TEAE (Total (N = 23)): 21 (91.3) n (%) | Vomiting, Any Grade (Total (N = 23)): 8 (34.8) n (%) | Vomiting, ≥ Grade 3 (Total (N = 23)): 2 (8.7) n (%) | White blood cell count decreased, Any Grade (Total (N = 23)): 3 (13.0) n (%) | White blood cell count decreased, ≥ Grade 3 (Total (N = 23)): 0 (0.0) n (%) | grade 4 or 5 AEs (all dose levels): No grade 4 or 5 AEs were reported | maximum tolerated dose (MTD) (patients, BID): 250 mg
